Results as given in US20230102520A1, “INHIBITORS OF LOW MOLECULAR WEIGHT PROTEIN TYROSINE PHOSPHATASE (LMPTP) AND USES THEREOF” (Sanford Burnham Prebys Medical Discovery Institute, priority 2019, published 2023).

Target: T1, human LMPTP-A (Homo sapiens, UniProt P24666)
T1 sequence (P24666 1-158): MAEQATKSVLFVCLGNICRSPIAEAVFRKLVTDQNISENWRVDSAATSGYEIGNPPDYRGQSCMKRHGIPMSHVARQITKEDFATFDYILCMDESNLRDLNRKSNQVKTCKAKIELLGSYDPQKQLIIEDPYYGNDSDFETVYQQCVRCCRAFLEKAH
Assay: Enzyme Assay of Inhibition of LMPTP-A
Format: biochemical
Details: phosphatase assay, OMFP or pNPP substrate, 50 mM Bis-Tris pH 6.0, 37° C.
Experimental: Example B-1: Enzyme Assay of Inhibition of LMPTP-A
Phosphatase assays were performed in buffer containing 50 mM Bis-Tris, pH 6.0, 1 mM DTT and 0.01% Triton X-100 at 37° C. For assays conducted with 3-O-methylfluorescein phosphate (OMFP) as substrate, fluorescence was monitored continuously at λex=485 and λem=525 nm. For assays conducted with para-nitrophenylphosphate (pNPP) as substrate, the reaction was stopped by addition of 2× reaction volume of 1 M NaOH, and absorbance was measured at 405 nm. IC50 values of compounds disclosed herein were determined from plots of inhibitor concentration versus percentage of enzyme activity. For inhibitor selectivity assays, each PTP was incubated with either 0.4 mM OMFP or 5 mM pNPP in the presence of 40 μM compound or DMSO. […] For the inhibitor reversibility assay, 50 nM human LMPTP-A was pre-incubated with 10 μM of compound disclosed herein or DMSO for 5 min. The enzyme was diluted 100× in phosphatase assay buffer containing 0.4 mM OMFP and fluorescence was measured at the indicated time points.

SMILES | IC50 [nM]
Nc1ncn(Cc2c(Br)cncc2Br)c2nc(-c3cccc4c3CCCC4)nc1-2 [3-[(3,5-dibromo(4-pyridyl))methyl]-8-(5,6,7,8-tetrahydronaphthyl)-3-hydropurine-6-ylamine] | > 20000
Cc1ccccc1-c1nc2c(N)nc(C)n(Cc3c(Cl)cncc3Cl)c-2n1 [3-[(3,5-dichloro(4-pyridyl))methyl]-2-methyl-8-(2-methylphenyl)-3-hydropurine-6-ylamine] | 1000 to 20000
Nc1ncn(Cc2c(Cl)cncc2Cl)c2nc(-c3cccc4c3CCCC4)nc1-2 [3-[(3,5-dichloro(4-pyridyl))methyl]-8-(5,6,7,8-tetrahydronaphthyl)-3-hydropurine-6-ylamine] | > 20000
Cc1ccccc1-c1nc2c(N)ncn(Cc3ccncc3Cl)c-2n1 [3-[(3-chloro(4-pyridyl))methyl]-8-(2-methylphenyl)-3-hydropurine-6-ylamine] | < 1000
Cc1ccccc1-c1nc2c(N)ncn(Cc3ccncc3F)c-2n1 [3-[(3-fluoro(4-pyridyl))methyl]-8-(2-methylphenyl)-3-hydropurine-6-ylamine] | < 1000
Cc1ccccc1-c1nc2c(N)ncn(Cc3c(Cl)ncnc3Cl)c-2n1 [3-[(4,6-dichloropyrimidin-5-yl)methyl]-8-(2-methylphenyl)-3-hydropurine-6-ylamine] | < 1000
Nc1ncn(Cc2c(Cl)ncnc2Cl)c2nc(-c3ccccc3)nc1-2 [3-[(4,6-dichloropyrimidin-5-yl)methyl]-8-phenyl-3-hydropurine-6-ylamine] | < 1000
Cc1ccccc1-c1nc2c(N)nc(C)n(Cc3c(Br)cnn3C)c-2n1 [3-[(4-bromo-1-methylpyrazol-5-yl)methyl]-2-methyl-8-(2-methylphenyl)-3-hydropurine-6-ylamine] | 1000 to 20000
Cc1ccccc1-c1nc2c(N)ncn(Cc3c(Br)cnn3C)c-2n1 [3-[(4-bromo-1-methylpyrazol-5-yl)methyl]-8-(2-methylphenyl)-3-hydropurine-6-ylamine] | < 1000
Cn1ncc(Br)c1Cn1cnc(N)c2nc(-c3ccccc3)nc1-2 [3-[(4-bromo-1-methylpyrazol-5-yl)methyl]-8-phenyl-3-hydropurine-6-ylamine] | < 1000
Cc1ccccc1-c1nc2c(N)ncn(Cc3c(Br)ccnc3Cl)c-2n1 [3-[(4-bromo-2-chloro(3-pyridyl))methyl]-8-(2-methylphenyl)-3-hydropurine-6-ylamine] | < 1000
Nc1ncn(Cc2c(Br)ccnc2Cl)c2nc(-c3ccccc3)nc1-2 [3-[(4-bromo-2-chloro(3-pyridyl))methyl]-8-phenyl-3-hydropurine-6-ylamine] | < 1000
Cc1ccccc1-c1nc2c(N)ncn(Cc3c(Cl)ccnc3F)c-2n1 [3-[(4-chloro-2-fluoro(3-pyridyl))methyl]-8-(2-methylphenyl)-3-hydropurine-6-ylamine] | < 1000
Nc1ncn(Cc2c(Cl)ccnc2F)c2nc(-c3ccccc3)nc1-2 [3-[(4-chloro-2-fluoro(3-pyridyl))methyl]-8-phenyl-3-hydropurine-6-ylamine] | < 1000
COc1nccc(I)c1Cn1cnc(N)c2nc(-c3ccccc3)nc1-2 [3-[(4-iodo-2-methoxy(3-pyridyl))methyl]-8-phenyl-3-hydropurine-6-ylamine] | < 1000
Cc1ccccc1-c1nc2c(N)ncn(Cc3scnc3C)c-2n1 [3-[(4-methyl(1,3-thiazol-5-yl))methyl]-8-(2-methylphenyl)-3-hydropurine-6-ylamine] | < 1000
Cc1ncsc1Cn1cnc(N)c2nc(-c3ccccc3)nc1-2 [3-[(4-methyl(1,3-thiazol-5-yl))methyl]-8-phenyl-3-hydropurine-6-ylamine] | 1000 to 20000
Cc1ccccc1-c1nc2c(N)ncn(Cc3cncc(Cl)c3)c-2n1 [3-[(5-chloro(3-pyridyl))methyl]-8-(2-methylphenyl)-3-hydropurine-6-ylamine] | < 1000
COc1cccc(OC)c1-c1nc2c(N)ncn(Cc3c(Cl)cnc(Cl)c3Cl)c-2n1 [8-(2,6-dimethoxyphenyl)-3-[(2,3,5-trichloro(4-pyridyl))methyl]-3-hydropurine-6-ylamine] | < 1000
COc1cccc(OC)c1-c1nc2c(N)ncn(Cc3c(Cl)ncc(Cl)c3Cl)c-2n1 [8-(2,6-dimethoxyphenyl)-3-[(2,4,5-trichloro(3-pyridyl))methyl]-3-hydropurine-6-ylamine] | < 1000
Cc1ccccc1-c1nc2c(N)ncn(Cc3c(Cl)cnc(Cl)c3Cl)c-2n1 [8-(2-methylphenyl)-3-[(2,3,5-trichloro(4-pyridyl))methyl]-3-hydropurine-6-ylamine] | < 1000
Nc1ncn(Cc2c(Cl)cncc2Cl)c2nc(-c3ccc4c(c3)OCO4)nc1-2 [8-(2H-benzo[d]1,3-dioxolen-5-yl)-3-[(3,5-dichloro(4-pyridyl))methyl]-3-hydropurine-6-ylamine] | < 1000
Nc1ccncc1-c1nc2c(N)ncn(Cc3c(Cl)cncc3Cl)c-2n1 [8-(4-amino(3-pyridyl))-3-[(3,5-dichloro(4-pyridyl))methyl]-3-hydropurine-6-ylamine] | 1000 to 20000
Nc1ncn(Cc2c(Cl)ccnc2Cl)c2nc(C3C4CC5CC(C4)CC3C5)nc1-2 (centres unmarked) [8-adamantan-2-yl-3-[(2,4-dichloro(3-pyridyl))methyl]-3-hydropurine-6-ylamine] | < 1000
Nc1ncn(Cc2c(Cl)cncc2Cl)c2nc(C3C4CC5CC(C4)CC3C5)nc1-2 (centres unmarked) [8-adamantan-2-yl-3-[(3,5-dichloro(4-pyridyl))methyl]-3-hydropurine-6-ylamine] | < 1000
Nc1ncn(Cc2c(Cl)cncc2Cl)c2nc(-c3nc4ccccc4[nH]3)nc1-2 [8-benzimidazol-2-yl-3-[(3,5-dichloro(4-pyridyl))methyl]-3-hydropurine-6-ylamine] | < 1000
Nc1ncn(Cc2c(Cl)cncc2Cl)c2nc(-c3ccc4[nH]cnc4c3)nc1-2 [8-benzimidazol-5-yl-3-[(3,5-dichloro(4-pyridyl))methyl]-3-hydropurine-6-ylamine] | < 1000
Nc1ncn(Cc2c(Cl)cncc2Cl)c2nc(-c3ccc4ccoc4c3)nc1-2 [8-benzo[3,4-b]furan-6-yl-3-[(3,5-dichloro(4-pyridyl))methyl]-3-hydropurine-6-ylamine] | < 1000

Further lines, results first:

IC50 [nM] | SMILES
< 1000 | Nc1ncn(Cc2c(Br)cncc2Br)c2nc(-c3cnn4ccccc34)nc1-2 [3-[(3,5-dibromo(4-pyridyl))methyl]-8-(8-hydropyrazolo[1,5-a]pyridin-3-yl)-3-hydropurine-6-ylamine]
< 1000 | Nc1ncn(Cc2c(Br)cncc2Br)c2nc(-c3ccccc3)nc1-2 [3-[(3,5-dibromo(4-pyridyl))methyl]-8-phenyl-3-hydropurine-6-ylamine]
< 1000 | Cc1cc(-c2nc3c(N)ncn(Cc4c(Cl)cncc4Cl)c-3n2)n(C)n1 [3-[(3,5-dichloro(4-pyridyl))methyl]-8-(1,3-dimethylpyrazol-5-yl)-3-hydropurine-6-ylamine]
< 1000 | Cn1cnc2cc(-c3nc4c(N)ncn(Cc5c(Cl)cncc5Cl)c-4n3)ccc21 [3-[(3,5-dichloro(4-pyridyl))methyl]-8-(1-methylbenzimidazol-5-yl)-3-hydropurine-6-ylamine]
< 1000 | Cn1cnc2ccc(-c3nc4c(N)ncn(Cc5c(Cl)cncc5Cl)c-4n3)cc21 [3-[(3,5-dichloro(4-pyridyl))methyl]-8-(1-methylbenzimidazol-6-yl)-3-hydropurine-6-ylamine]
< 1000 | Nc1ncn(Cc2c(Cl)cncc2Cl)c2nc(-c3cc(F)ccc3F)nc1-2 [3-[(3,5-dichloro(4-pyridyl))methyl]-8-(2,5-difluorophenyl)-3-hydropurine-6-ylamine]
< 1000 | Nc1ncn(Cc2c(Cl)cncc2Cl)c2nc(-c3cnn4ccccc34)nc1-2 [3-[(3,5-dichloro(4-pyridyl))methyl]-8-(8-hydropyrazolo[1,5-a]pyridin-3-yl)-3-hydropurine-6-ylamine]
< 1000 | Nc1ncn(Cc2c(Cl)cncc2Cl)c2nc(-c3ccn4nccc4c3)nc1-2 [3-[(3,5-dichloro(4-pyridyl))methyl]-8-(8-hydropyrazolo[1,5-a]pyridin-5-yl)-3-hydropurine-6-ylamine]
< 1000 | Nc1ncn(Cc2c(Cl)cncc2Cl)c2nc(-c3cnccc3C(F)(F)F)nc1-2 [3-[(3,5-dichloro(4-pyridyl))methyl]-8-[4-(trifluoromethyl)(3-pyridyl)]-3-hydropurine-6-ylamine]
< 1000 | Nc1ncn(Cc2c(Cl)cncc2Cl)c2nc(Cc3ccc(F)cc3)nc1-2 [3-[(3,5-dichloro(4-pyridyl))methyl]-8-[(4-fluorophenyl)methyl]-3-hydropurine-6-ylamine]
< 1000 | COc1cncc(OC)c1Cn1cnc(N)c2nc(-c3ccccc3C)nc1-2 [3-[(3,5-dimethoxy(4-pyridyl))methyl]-8-(2-methylphenyl)-3-hydropurine-6-ylamine]
< 1000 | Cc1ccccc1-c1nc2c(N)ncn(Cc3sccc3Cl)c-2n1 [3-[(3-chloro(2-thienyl))methyl]-8-(2-methylphenyl)-3-hydropurine-6-ylamine]
< 1000 | Nc1ncn(Cc2sccc2Cl)c2nc(-c3ccccc3)nc1-2 [3-[(3-chloro(2-thienyl))methyl]-8-phenyl-3-hydropurine-6-ylamine]
